Laboratory results as given in patent publication US20120046321A1, “METHODS OF TREATING ATRIAL FIBRILLATION WITH P38 INHIBITOR COMPOUNDS” (INTERMUNE, INC., priority 2005, published 2012).

Tested on: canines with ventricular tachypacing (VTP)-induced congestive heart failure (CHF)
Test: AF inducibility in open-chest EP study (single extrastimulus and burst pacing)
Assay type: in vivo, canine
Excerpt: Briefly, 15 adult mongrel canines (weight 20 to 32 kgs) were divided into 3 groups (n=5 in each group) as follows: Group 1: Normal; Group 2: CHF canines not treated with PFD (or CHF); and Group 3: CHF canines treated with PFD (or CHF+PFD). […] The CHF and CHF+PFD canines underwent placement of a permanent single-chamber pacemaker with the pacing lead positioned in the right ventricular apex followed by radiofrequency catheter ablation of the AV junction to create complete heart block. Canines in the CHF and CHF+PFD groups underwent 3 weeks of VTP at a rate of 220 bpm. […] Effective refractory periods (ERPs) were measured at 12 atrial sites (6 in LA, 6 in RA) using the single extrastimulus protocol (S1S2) at an 8-beat drive train basic cycle lengths (BCLs) of 200, 300, and 400 ms. During stimulation of the contralateral Bachmann's bundle, conduction velocity (CV) was calculated between pairs of plaque electrodes perpendicular to the activation wavefront with a custom-written software. […] Two measures were derived to quantify conduction heterogeneity: 1) absolute conduction heterogeneity, defined as P95-P5 (P95-5), and 2) conduction heterogeneity index, defined as the absolute conduction heterogeneity normalized by the median phase, or P95-5/P50. […]

Compound: Cc1ccc(=O)n(-c2ccccc2)c1 [PFD, 5-methyl-1-phenyl-2-(1H)-pyridone]
- Mean AF duration (CHF+PFD, p<0.009 vs. CHF (1488±698 secs), Normal 16±25 secs): 12 ± 13 s
- Sustained AF (open-chest experiments, untreated CHF 4/5, p<0.007): only observed in the untreated CHF canines
